Experimental data from patent US20240228488A1 (TAKEDA PHARMACEUTICAL COMPANY LIMITED, priority 2021, published 2024).
pEC50: −log10 of the molar value.

target: human activated kallikrein enzyme (Homo sapiens, UniProt P03952); experiment: Plasma kallikrein inhibition, fluorogenic PFR-AMC substrate, 500 pM activated kallikrein format; type: biochemical; settings: 500 pM activated kallikrein, 300 uM PFR-AMC, 30 min preincubation, 10 min reaction; read-out: Primary Dose Response Assay: Average EC50
Sequence (P03952 391-638 limits assumed): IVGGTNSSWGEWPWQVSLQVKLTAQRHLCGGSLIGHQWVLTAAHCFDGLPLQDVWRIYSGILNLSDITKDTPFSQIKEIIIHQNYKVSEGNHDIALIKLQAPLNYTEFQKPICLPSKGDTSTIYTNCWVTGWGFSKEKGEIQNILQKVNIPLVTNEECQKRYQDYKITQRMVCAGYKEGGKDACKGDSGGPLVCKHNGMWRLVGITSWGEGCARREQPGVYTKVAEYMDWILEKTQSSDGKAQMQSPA
Sequence (P03952 20-390 partner limits assumed): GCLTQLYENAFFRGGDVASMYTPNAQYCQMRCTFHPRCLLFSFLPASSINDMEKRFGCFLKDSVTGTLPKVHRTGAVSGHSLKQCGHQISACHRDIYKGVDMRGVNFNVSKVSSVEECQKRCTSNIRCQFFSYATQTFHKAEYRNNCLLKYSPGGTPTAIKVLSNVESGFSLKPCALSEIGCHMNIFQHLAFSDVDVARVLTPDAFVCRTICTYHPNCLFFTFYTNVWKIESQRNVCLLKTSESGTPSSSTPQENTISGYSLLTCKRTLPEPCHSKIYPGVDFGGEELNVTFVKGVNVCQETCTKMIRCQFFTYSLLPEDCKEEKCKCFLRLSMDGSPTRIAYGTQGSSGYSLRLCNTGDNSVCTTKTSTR
Method in brief: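 Enzyme at 500 pM preincubated 30 min RT with inhibitors in 20 mM Tris pH 7.5, 1 mM EDTA, 150 mM NaCl, 0.1% PEG-400, 0.1% Triton X-100. Reaction started with 300 uM PFR-AMC, run 10 min RT; fluorescence read at 460 nm emission, 380 nm excitation. EC50 reported in ranges.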

pEC50	Structure (SMILES)
6.00 to 7.00	Cc1ccnc([C@H]2C[C@@H]2C(=O)Nc2cc(NC(C)c3cn4c(N5CC(=O)N(C)C5=O)cc(C5CC5)cc4n3)nc(C)n2)n1 (stereo partly drawn) [Example 362, (1S,2S)-N-(6-((1-(7-cyclopropyl-5-(3-methyl-2,4-dioxoimidazolidin-1-yl)imidazo[1,2-a]pyridin-2-yl)ethyl)amino)-2-methylpyrimidin-4-yl)-2-(4-methylpyrimidin-2-yl)cyclopropane-1-carboxamide]
> 9.00	CS(=O)(=O)c1cc(C2CC2)cn2cc(CNc3cc(NC(=O)[C@H]4C[C@@H]4c4cc(Cl)ccn4)ncn3)nc12 [Example 325, (1S,2S)-2-(4-chloropyridin-2-yl)-N-(6-(((6-cyclopropyl-8-(methylsulfonyl)imidazo[1,2-a]pyridin-2-yl)methyl)amino)pyrimidin-4-yl)cyclopropane-1-carboxamide]
8.00 to 9.00	O=C(Nc1cc(NCc2cn3cc(C4CC4)cc(N4CCOCC4)c3n2)ncn1)[C@H]1C[C@@H]1c1cccc(Cl)c1 [Example I-154, (1S,2S)-2-(3-chlorophenyl)-N-(6-(((6-cyclopropyl-8-morpholinoimidazo[1,2-a]pyridin-2-yl)methyl)amino)pyrimidin-4-yl)cyclopropane-1-carboxamide]
< 5.22	C[C@H]1[C@H](C(=O)Nc2cc(NCc3cn4cc(C5CC5)ccc4n3)ncn2)[C@H]1c1cccc(Cl)c1 (single isomer, unassigned) [Example 508, (1R*,2R*,3S*)-2-(3-chlorophenyl)-N-(6-(((6-cyclopropylimidazo[1,2-a]pyridin-2-yl)methyl)amino)pyrimidin-4-yl)-3-methylcyclopropane-1-carboxamide]
8.00 to 9.00	Cc1ccnc([C@H]2C[C@@H]2C(=O)Nc2cc(NCc3cn4cc(C5CC5)cc(N5CC(=O)N(C)C5=O)c4n3)c(Cl)nn2)n1 [Example I-247, (1S,2S)-N-(6-chloro-5-(((6-cyclopropyl-8-(3-methyl-2,4-dioxoimidazolidin-1-yl)imidazo[1,2-a]pyridin-2-yl)methyl)amino)pyridazin-3-yl)-2-(4-methylpyrimidin-2-yl)cyclopropane-1-carboxamide]
> 9.00	COCc1nc(NC(=O)[C@H]2C[C@@H]2c2nccc(C)n2)cc(N[C@H](C)c2cn3cc(C)cc(N4CC(=O)N(C)C4=O)c3n2)n1 [Example 438, (1S,2S)-N-(2-(methoxymethyl)-6-(((R)-1-(6-methyl-8-(3-methyl-2,4-dioxoimidazolidin-1-yl)imidazo[1,2-a]pyridin-2-yl)ethyl)amino)pyrimidin-4-yl)-2-(4-methylpyrimidin-2-yl)cyclopropane-1-carboxamide]
> 9.00	O=C(Nc1nccc2nn(Cc3cn4cc(C5CC5)ccc4n3)cc12)[C@H]1C[C@@H]1c1cc(Cl)ccc1-n1cnnn1 (racemic) [Example 586, rac-(1S*,2S*)-2-(5-chloro-2-(1H-tetrazol-1-yl)phenyl)-N-(2-((6-cyclopropylimidazo[1,2-a]pyridin-2-yl)methyl)-2H-pyrazolo[4,3-c]pyridin-4-yl)cyclopropane-1-carboxamide]
8.00 to 9.00	O=C(Nc1cc(NCc2cn3cc(C4CC4)ccc3n2)ncn1)[C@H]1[C@H](F)[C@@H]1c1cccc(Cl)c1 (racemic) [Example 511, rac-(1R*,2R*,3S*)-2-(3-chlorophenyl)-N-(6-(((6-cyclopropylimidazo[1,2-a]pyridin-2-yl)methyl)amino)pyrimidin-4-yl)-3-fluorocyclopropane-1-carboxamide]
> 9.00	O=C(Nc1cc(NCc2cn3cc(C4CC4)ccc3n2)ccn1)[C@@H]1C[C@]12CCc1ccc(Cl)cc12 (single isomer, unassigned) [Example I-273, rac-(1S*,2S*)-6′-chloro-N-(4-(((6-cyclopropylimidazo[1,2-a]pyridin-2-yl)methyl)amino)pyridin-2-yl)-2′,3′-dihydrospiro[cyclopropane-1,1′-indene]-2-carboxamide]
> 9.00	Cc1ccnc([C@H]2C[C@@H]2C(=O)Nc2cc(OCc3cn4cc(C5CC5)cc(N5CC(=O)N(C)C5=O)c4n3)nc(C(C)O)n2)n1 (stereo partly drawn) [Example 662, (1S,2S)—N-(6-((6-cyclopropyl-8-(3-methyl-2,4-dioxoimidazolidin-1-yl)imidazo[1,2-a]pyridin-2-yl)methoxy)-2-(1-hydroxyethyl)pyrimidin-4-yl)-2-(4-methylpyrimidin-2-yl)cyclopropane-1-carboxamide]
8.00 to 9.00	CC1OCCN(c2cc(C3CC3)cn3cc(CNc4cc(NC(=O)[C@H]5C[C@@H]5c5cccc(Cl)c5)ncn4)nc23)C1=O (relative stereo) [Example 68, rac-(1S*,2S*)-2-(3-chlorophenyl)-N-(6-(((6-cyclopropyl-8-(2-methyl-3-oxomorpholino)imidazo[1,2-α]pyridin-2-yl)methyl)amino)pyrimidin-4-yl)cyclopropane-1-carboxamide]
7.00 to 8.00	COc1nc(NCc2cn3cc(C4CC4)ccc3n2)cc(NC(=O)[C@@H]2C[C@H]2c2cccc(Cl)c2)n1 (racemic) [Example 107, rac-(1S*,2S*)-2-(3-chlorophenyl)-N-(6-(((6-cyclopropylimidazo[1,2-a]pyridin-2-yl)methyl)amino)-2-methoxypyrimidin-4-yl)cyclopropane-1-carboxamide]
6.00 to 7.00	Nc1ccc(Cl)cc1[C@H]1C[C@@H]1C(=O)Nc1cc(NCc2cn3cc(C4CC4)ccc3n2)ncn1 (racemic) [Example 279, rac-(1S*,2S*)-2-(2-amino-5-chlorophenyl)-N-(6-(((6-cyclopropylimidazo[1,2-a]pyridin-2-yl)methyl)amino)pyrimidin-4-yl)cyclopropane-1-carboxamide]
8.00 to 9.00	O=C(Nc1cc(NCc2cn3cc(C4CC4)cc(N4CC(=O)N(CC(F)(F)F)C4=O)c3n2)ncn1)[C@H]1C[C@@H]1c1cccc(Cl)c1 [Example 398, (1S,2S)-2-(3-chlorophenyl)-N-(6-(((6-cyclopropyl-8-(2,4-dioxo-3-(2,2,2-trifluoroethyl)imidazolidin-1-yl)imidazo[1,2-a]pyridin-2-yl)methyl)amino)pyrimidin-4-yl)cyclopropane-1-carboxamide]
6.00 to 7.00	Cc1ccnc([C@@H]2C[C@H]2C(=O)Nc2cc(OCc3cn4cc(C5CC5)cc(N5CC(=O)N(C)C5=O)c4n3)ncn2)n1 (single isomer, unassigned) [Example 29]
7.00 to 8.00	O=C(Nc1cc(NCc2cn3cc(C4CC4)ccc3n2)ncn1)[C@H]1C[C@@H]1c1ncn2ccc(Cl)c(F)c12 (racemic) [Example 504, rac-(1S*,2S*)-2-(7-chloro-8-fluoroimidazo[1,5-a]pyridin-1-yl)-N-(6-(((6-cyclopropylimidazo[1,2-a]pyridin-2-yl)methyl)amino)pyrimidin-4-yl)cyclopropane-1-carboxamide]
7.00 to 8.00	Nc1ccc(Cl)cc1[C@H]1C[C@@H]1C(=O)Nc1nccc2nn(Cc3cn4cc(C5CC5)ccc4n3)cc12 (racemic) [Example 585, rac-(1S*,2S*)-2-(2-amino-5-chlorophenyl)-N-(2-((6-cyclopropylimidazo[1,2-a]pyridin-2-yl)methyl)-2H-pyrazolo[4,3-c]pyridin-4-yl)cyclopropane-1-carboxamide]

same assay, conditions: comparative compounds, 500 pM activated kallikrein format; read-out: Primary Dose Response Assay: Average EC50

pEC50	Structure (SMILES)
5.22 to 6.00	O=C(N[C@H]1C[C@@H]1c1cccc(Cl)c1)c1cc(NCc2cn3cc(C4CC4)ccc3n2)ncn1
